Source: patent US11807607B1, “Aminocarbazole compounds as antibacterial agents” (KING FAISAL UNIVERSITY, priority 2023, dated 2023)
Values after ≈ are worked out from the molar mass of the structure shown. Where two headings read alike, the source gives them in different places.

Tests used:
[1] = test system: Staphylococcus aureus ATCC 29213; assay: Antibacterial MIC, CLSI M07-A10 dilution susceptibility test; assay type: cell-based; settings: ATCC29213
[2] = test system: Staphylococcus aureus ATCC BAA-1556 (MERSA resistant); assay: as above; assay type: cell-based; settings: ATCCBAA1556
[3] = test system: Staphylococcus epidermidis; assay: as above; assay type: cell-based
[4] = test system: Bacillus subtilis MTCC 441; assay: as above; assay type: cell-based; settings: MTCC441
[5] = test system: Enterococcus faecium ATCC 35667; assay: as above; assay type: cell-based; settings: ATCC35667
[6] = test system: Enterococcus faecium ATCC 51559 (VRE resistant); assay: as above; assay type: cell-based
[7] = test system: Klebsiella pneumonia MTCC 618; assay: as above; assay type: cell-based; settings: Klebsiella pneumoniae, MTCC618
[8] = test system: Escherichia coli MTCC 443; assay: as above; assay type: cell-based; settings: MTCC443
[9] = test system: Pseudomonas aeruginosa MTCC 741; assay: as above; assay type: cell-based; settings: MTCC741
[10] = test system: Mycobacterium tuberculosis H37Rv strain; assay: Anti-tubercular alamar blue microplate MIC assay; assay type: cell-based; settings: 168 h, M. tuberculosis H37Rv, 7 days at 37° C., read-out: anti-mycobacterial activity (MIC)
DNA gyrase from E. coli = target: T1, DNA gyrase from E. coli (Escherichia coli, UniProt P0AES4+P0AES6); assay: Inspiralis E. coli DNA gyrase inhibition assay; assay type: biochemical
T1 construct: purchased Inspiralis
T1 sequence (P0AES4 whole entry, one chain of several): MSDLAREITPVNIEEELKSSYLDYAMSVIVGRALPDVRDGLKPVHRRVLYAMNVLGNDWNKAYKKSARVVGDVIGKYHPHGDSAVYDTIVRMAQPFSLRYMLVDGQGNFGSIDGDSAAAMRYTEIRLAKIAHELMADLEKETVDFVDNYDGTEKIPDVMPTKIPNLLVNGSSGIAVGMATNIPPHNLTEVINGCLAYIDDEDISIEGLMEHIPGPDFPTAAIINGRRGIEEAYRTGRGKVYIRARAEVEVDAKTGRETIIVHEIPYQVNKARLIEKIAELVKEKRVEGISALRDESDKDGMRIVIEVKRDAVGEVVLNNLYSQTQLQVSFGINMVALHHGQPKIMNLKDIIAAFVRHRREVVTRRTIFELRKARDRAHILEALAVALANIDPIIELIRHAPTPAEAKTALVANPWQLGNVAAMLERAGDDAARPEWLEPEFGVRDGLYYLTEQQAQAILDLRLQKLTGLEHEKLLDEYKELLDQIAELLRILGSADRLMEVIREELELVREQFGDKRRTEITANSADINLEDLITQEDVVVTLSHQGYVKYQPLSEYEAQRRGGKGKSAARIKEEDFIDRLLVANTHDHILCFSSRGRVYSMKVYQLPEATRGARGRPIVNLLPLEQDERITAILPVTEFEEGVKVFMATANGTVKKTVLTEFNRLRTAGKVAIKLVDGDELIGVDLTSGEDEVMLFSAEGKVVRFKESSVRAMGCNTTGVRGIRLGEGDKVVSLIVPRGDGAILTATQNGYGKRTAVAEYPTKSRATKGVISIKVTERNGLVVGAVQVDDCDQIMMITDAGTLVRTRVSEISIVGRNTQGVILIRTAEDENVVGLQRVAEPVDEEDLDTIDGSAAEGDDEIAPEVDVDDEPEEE
Experimental: Inhibitory potencies were investigated utilizing the Inspiralis assay on streptavidin-coated 96-well microtiter plates. First, the plates were rehydrated with buffer (20 mM Tris-HCl with pH 7.6, 0.01% w/v BSA, 0.05% v/v Tween 20, 137 mM NaCl) and the biotinylated oligonucleotide was then immobilized. After washing off the unbound oligonucleotide, the enzyme test was performed. […] Reaction solutions were incubated at 37° C. for 30 min. After that, the TF buffer (50 mM NaOAc with pH 5.0, 50 mM NaCl and 50 mM MgCl2) was added to terminate the enzymatic reaction. After additional incubation for 30 min at rt, during which biotinoligonucleotide-plasmid triplex was formed, the unbound plasmid was washed off using TF buffer and SybrGOLD in T10 buffer (10 mM Tris HCl with pH 8.0 and 1 mM EDTA) was added. The fluorescence was measured with a microplate reader (BioTek Synergy H4, excitation: 485 nm, emission: 535 nm). Initial screening was done at 100 or 10 μM concentration of inhibitors. […] GraphPad Prism software was used to calculate the IC50 values. The result is given as the average value of three independent measurements.

[11] = test system: Gram-positive and Gram-negative bacterial strains, drug sensitive and drug resistant; assay: In vitro antibacterial activity evaluation, whole strain panel

Compound: CNc1cc(F)cc2c1[nH]c1ccc(Nc3cccc(C(=O)O)c3)cc12 [Compound 6, 3-((6-fluoro-8-(methylamino)-9H-carbazol-3-yl)amino)benzoic acid]
- MIC [1]: 0.75 µg/mL (≈ 2.15 µM)
- MIC [2]: 1 µg/mL (≈ 2.86 µM)
- MIC ([3]; read-out: MIC): 0.5 µg/mL (≈ 1.43 µM)
- MIC ([4]; Bacillus subtilis MTCC 441, read-out: MIC): 0.75 µg/mL (≈ 2.15 µM)
- MIC ([5]; Enterococcus faecium ATCC 35667, read-out: MIC): 1 µg/mL (≈ 2.86 µM)
- MIC ([6]; Enterococcus faecium ATCC 51559 (VRE resistant), read-out: MIC): 2 µg/mL (≈ 5.72 µM)
- MIC ([7]; Klebsiella pneumonia MTCC 618, read-out: MIC): 1 µg/mL (≈ 2.86 µM)
- MIC ([8]; Escherichia coli MTCC 443, read-out: MIC): 32 µg/mL (≈ 91.6 µM)
- MIC ([9]; Pseudomonas aeruginosa MTCC 741, read-out: MIC): 16 µg/mL (≈ 45.8 µM)

Compound: CNc1cc(F)cc2c1[nH]c1ccc(-c3cccc(CC(=O)O)c3)cc12 [Compound 1, 2-(3-(6-fluoro-8-(methylamino)-9H-carbazol-3-yl)phenyl)acetic acid]
- MIC [10]: 2 µg/mL (≈ 5.74 µM)
- IC50 (DNA gyrase from E. coli): 80 nM
- antibacterial activity (in words) [11]: promising antibacterial activity

Compound: CN[C@H](CC(C)C)C(=O)N[C@H]1C(=O)N[C@@H](CC(N)=O)C(=O)N[C@H]2C(=O)N[C@H]3C(=O)N[C@H](C(=O)N[C@H](C(=O)O)c4cc(O)cc(O)c4-c4cc3ccc4O)[C@H](O)c3ccc(c(Cl)c3)Oc3cc2cc(c3O[C@@H]2O[C@H](CO)[C@@H](O)[C@H](O)[C@H]2O[C@H]2C[C@](C)(N)[C@H](O)[C@H](C)O2)Oc2ccc(cc2Cl)[C@H]1O [Vancomycin, reference compound]
- MIC [3]: 1 µg/mL (≈ 0.69 µM)
- MIC ([4]; Bacillus subtilis): 0.5 µg/mL (≈ 0.345 µM)
- MIC ([5]; Enterococcus faecium): 0.5 µg/mL (≈ 0.345 µM)
- MIC ([6]; Enterococcus faecium): > 128 µg/mL
- MIC [7]: > 128 µg/mL
- MIC ([8]; Escherichia coli): > 128 µg/mL
- MIC ([9]; Pseudomonas aeruginosa): > 128 µg/mL
